Laboratory results as given in US20020169111A1, “Reversal of multidrug resistance in human colon carcinoma cells” (American Cyanamid Comany, priority 1998, published 2002).

Experiments:
S1 cells = settings: 1 hour efflux with energy depletor, growth medium = 100
Procedure: (§2) Cell-associated radioactivity was measured at the indicated times. Values are mean percentage of drug remaining (triplicate determinations) ± standard deviation.
(§3) After 1 hour, cells were prepared for analysis by scintillation counting. Values shown are mean percentage of drug remaining (triplicate determinations) ± standard deviation.

S1-M1-3.2 cells [1] = settings: 1 hour efflux with energy depletor, growth medium = 100
Procedure: as §2, §3

S1-B1-20 cells = settings: 1 hour efflux with energy depletor, growth medium = 100
Procedure: as §2, §3

MCF-7/BCRP cells [2] = experiment: Dose modifying factor of FTC in BCRP-transfected cells; assay type: cell-based, human; settings: MCF-7/BCRP versus MCF-7, no reversal agent
Procedure: Cell survival was estimated after 3 days using the SRB assay, and EC50 values were determined from cytotoxicity curves.

S1-M1-3.2 cells [3] = experiment: Cytotoxicity of antitumor agents, 3-day SRB assay, mitoxantrone-selected cells; assay type: cell-based, human; settings: relative to S1; 2-7 independent experiments
Procedure: Cells were cultured for three days in the presence of the antitumor agent (triplicate points per dose). Following a 3-day growth period, cells were fixed in 10% trichloroacetic acid (TCA) for 1 hour, washed extensively with water, and cell-associated protein was stained using 0.1% sulforhodamine B (SRB), a protein binding reagent [Rubinstein et al., Journal of the National Cancer Institute 82, 1113-1118 (1990) and Skehan et al., Journal of the National Cancer Institute 82, 1107-1112 (1990)]. Excess reagent was removed by washing plates in 5% acetic acid, the dye was solubilized in 10 mM Tris base, and absorbance determined in a UV Max spectrophotometer (Molecular Devices, Menlo Park, Calif.) at 540 nm. Cell survival was estimated relative to control wells (no drugs). EC50 values (μM) were estimated from cytotoxicity curves. For S1, the values shown [mean ±SE (number of independent observations)] are taken from Zhang et al., “P-Glycoprotein Mediates Profound Resistance to Bisantrene,” Oncol. Res., 6:291-301, 1994. Values for S1-M1-3.2 are compiled from 2-7 independent experiments.

S1-M1-3.2 cells [4] = experiment: Dose modifying factor of FTC (SRB, EC50 ratio); assay type: cell-based, human; settings: S1-M1 versus S1, no reversal agent
Procedure: Cell survival was estimated after 3 days using the SRB assay. Cell survival was determined by the SRB assay and EC50 values were determined from toxicity curves. The dose modifying factor (DMF) is the ratio of EC50 values obtained in the absence and presence of reversal agent. Maximum DMF values (shown in parentheses) is the ratio of EC50 values of resistant and sensitive cells in the absence of the reversal agent. This value is obtained when resistance is reversed completely, and is the equivalent of the relative resistance.

MCF-7/BCRP cells [5] = assay type: cell-based, human
Procedure: (§1) All incubations were carried out in the absence or presence of FTC (1 or 5 μM).

MCF-7 cells = assay type: cell-based, human; settings: 1 μM daunorubicin, 1 hour retention phase
Procedure: as §1

S1-M1-3.2 cells [6] = settings: for Toxicity (>20%): compound alone, concentration that causes greater than 20% cell death of S1-M1-3.2 cells; for IC50: read-out: IC50 (μM), resensitizing S1-M1-3.2 cells to mitoxantrone, with 3.2 μM mitoxantrone, 50% cancer cell death
Procedure: One of the first reported molecules with reversing activity was verapamil, a calcium channel blocker. […] Cells were plated into 96-well dishes (100 μl/well) in growth medium supplemented with 5% FBS. […] Reversal agents were tested from 0.1-80 μM (triplicate points per dose). In parallel wells, cells were grown in the presence of the reversal agent alone.
The Difference Score is the difference in the percentage of cells surviving when the drug was given alone minus the percentage of cells surviving when the drug was given along with the antitumor agent.
Cell survival was estimated using the Sulforhodamine (SRB) assay.

SMILES | S1-M1-3.2 (relative resistance) (S1-M1-3.2 cells [3]) | Toxicity (>20%) (S1-M1-3.2 cells [6]) | IC50 (S1-M1-3.2 cells [6]) | further results
[N-]=[N+]=[N-].[Na+] [PBS + sodium azide, sodium azide] |  |  |  | % mitoxantrone remaining in cell line (S1 cells): 137 ± 14%; % mitoxantrone remaining in cell line (S1-M1-3.2 cells [1]): 285 ± 43%; % mitoxantrone remaining in cell line (S1-B1-20 cells): 217 ± 6%
CC[C@@]1(O)C(=O)OCc2c1cc1n(c2=O)Cc2cc3c(CN(C)C)c(O)ccc3nc2-1 [topotecan, reference compound] | 41 |  |  | Maximum DMF (in parentheses; relative resistance to the antitumor agent) (MCF-7/BCRP cells [2]): 3.3; Maximum DMF (in parentheses; relative resistance to the antitumor agent) (S1-M1-3.2 cells [4]): 41
COc1cc(NS(C)(=O)=O)ccc1Nc1c2ccccc2nc2ccccc12 [m-AMSA] | 11 |  |  | 
COc1cc([C@@H]2c3cc4c(cc3[C@@H](O[C@@H]3O[C@@H]5CO[C@@H](c6cccs6)O[C@H]5[C@H](O)[C@H]3O)[C@H]3COC(=O)[C@H]23)OCO4)cc(OC)c1O [VM-26, teniposide] | 18 |  |  | 
COc1cccc2c1C(=O)c1c(O)c3c(c(O)c1C2=O)C[C@@](O)(C(C)=O)C[C@@H]3O[C@H]1C[C@H](N)[C@H](O)[C@H](C)O1 [daunorubicin, reference compound] |  |  |  | daunorubicin retention, Channel Number (fluorescence units), No FTC (MCF-7/BCRP cells [5]): 6.8 ± 0.33 fluorescence units; daunorubicin retention, Channel Number (fluorescence units), No FTC (MCF-7 cells): 15.2 ± 0.39 fluorescence units
CC[C@]1(O)C[C@@H]2CN(CCc3c([nH]c4ccccc34)[C@@](C(=O)OC)(c3cc4c(cc3OC)N(C)[C@H]3[C@@](O)(C(=O)OC)[C@H](OC(C)=O)[C@]5(CC)C=CCN6CC[C@]43[C@@H]65)C2)C1 [vinblastine] | 3 |  |  | 
CC(C)CC1c2[nH]c3ccccc3c2CC2C(=O)N3CCCCC3C(=O)N21 [Example 21b, (6aR,13S,15aR)-13-isobutyl-1,2,3,4,6a,7,12,13,15a-nonahydro-6H,15H-pyrido[1″,2″:4′,5′]pyrazino[2′,1′:6,1]pyrido[3,4-b]indole-6H,15H-dione] |  | >80.0 µM | 6 µM | 
CC(C)CC1c2[nH]c3ccccc3c2CC2C(=O)N3CCCCC3C(=O)N21 [Example 20b, (6aS,13S,15aR)-13-isobutyl-1,2,3,4,6a,7,12,13,15a-nonahydro-6H,15H-pyrido[1″,2″:4′,5′]pyrazino[2′,1′:6,1]pyrido[3,4-b]indole-6H,15H-dione] |  | 50.0 µM | 2 µM | 
COc1ccc2c3c(n(CC=C(C)C)c2c1)[C@H](C=C(C)C)N1C(=O)[C@@H]2CCCN2C(=O)[C@@H]1C3 [Example 34] |  | 2.0 µM | 1 µM | 
CC(C)C[C@@H]1c2[nH]c3ccccc3c2C[C@@H]2C(=O)N3CCC[C@@H]3C(=O)N21 [Example 17a, (5aR,12R,14aR)-12-isobutyl-1,2,3,5a,6,11,12,14a-octahydro-5H,14H-pyrrolo[1″,2″:4′,5′]pyrazino[2′,1′:6,1]pyrido[3,4-b]indole-5,14-dione] |  | 50.0 µM | 35 µM | 
C(=N\NC1=NCCN1)/c1c2ccccc2c(/C=N/NC2=NCCN2)c2ccccc12 [bisantrene] | 24 |  |  | 
COc1cc([C@@H]2c3cc4c(cc3[C@@H](O[C@@H]3O[C@@H]5CO[C@@H](C)O[C@H]5[C@H](O)[C@H]3O)[C@H]3COC(=O)[C@H]23)OCO4)cc(OC)c1O [etoposide] | 6 |  |  | 
